Test results from patent US9770429B2, “4-methylsulfonyl-2-butenenitrile and its pharmaceutical use” (OLATEC THERAPEUTICS LLC, priority 2013, dated 2017).

Test system: arachidonic acid-induced ear swelling
Assay: topical arachidonic acid-induced ear swelling model in mice
Assay type: in vivo
Settings: for % Inhibition of ear swelling: male ICR mice, topical application 30 min before and 15 min after arachidonic acid, measured at 90 minutes after arachidonic acid, indomethacin 14 mM (0.1 mg/20 μL), test compound 375 mM (1.1 mg/20 μL), relative to vehicle
Protocol: 4-Methylsulfonyl-2-butenenitrile, prepared from Example 1, was used in this experiment. The test compound, indomethacin (positive control), and vehicle were evaluated for anti-inflammatory activity in a topical arachidonic acid-induced ear swelling model in mice. Male ICR mice weighing 22±2 g were used and randomly divided; the test compound and vehicle control had 10 mice, and indomethacin had 5 mice. Arachidonic Acid (0.5 mg in 20 μl of acetone:ethanol/1:1) was applied topically to the anterior and posterior surfaces of the right ear of each mouse. Test substances and vehicle, as listed in Table 2 were similarly applied 30 min before and 15 min after arachidonic acid application. The thickness of the right ear and the left ear was measured and the difference calculated as an indication of the inflammation in the right ear. Ear swelling was measured by a Dyer model micrometer gauge at 60 and 90 minutes after arachidonic acid application as an index of inflammation. Percent inhibition was calculated according to the formula: Ic−It/Ic×100, where Ic and It refers to increase of ear thickness (mm) in control and treated mice, respectively. ANOVA and Dunnett's test were employed to ascertain significant difference between vehicle control and treated groups. Significance is set at P<0.05 level.

Structure (SMILES) | anti-inflammatory activity in the mouse ear swelling model (in words) (applied topically, inflammation induced by arachidonic acid) | % Inhibition of ear swelling [%]
CS(=O)(=O)C/C=C/C#N [4-methylsulfonyl-2-butenenitrile] | anti-inflammatory | 22
COc1ccc2c(c1)c(CC(=O)O)c(C)n2C(=O)c1ccc(Cl)cc1 [Indomethacin, indomethacin, reference compound] |  | 58
